# In patent publication US8722725B2, “Caffeoylquinic acid derivatives containing nitrogen, and preparation method, pharmaceutical composition and usage thereof” (Zhejiang Medicine Co., Ltd. Xinchang Pharmaceutical Factory, priority 2007, dated 2014):
# Where two headings read alike, the source gives them in different places.
# How the values were obtained:
# Assay type in all cases: cell-based
# [1] = system: hepatitis B virus (HBV) DNA; test: Inhibition of HBV DNA in 2.2.15 cell culture (dot blot hybridization, autoradiography); conditions: concentration not given
# Method: (§1) Anti-hepatitis (HBV) DNA virus in vitro of the above partial compounds is tested. human hepatoma carcinoma cells (Hep G2) in the 2.2.15 cell line are transfected by DNA cloning of hepatitis B virus (HBV), the inhibitory effect on cell toxicity and HBV DNA secretion are studied. Half inhibition concentration (IC50) and half toxicity concentration (TC50) of samples are measured, the inhibition ratio to HBV DNA in the 2.2.15 cell culture are obtained respectively.
# Virus strains: human hepatoma carcinoma cells (Hep G2) in 2.2.15 cell line are transfected by DNA cloning of hepatitis B virus (HBV). […]
# Test method: The sample is prepared for a 20 mg/ml mother liquor, and is further prepared for a required concentration by using a 2.2.15 cell culture medium. […] Mean cytopathic extent and inhibition ratio of medical solutions for each concentration are calculated. Half toxicity concentration (TC50) and its maximum of non toxicity concentration (TC0) are respectively calculated by the method of Reed-Muench. According to the method of molecular cloning experimental technology, firstly the HBV DNA is extracted from 2.2.15 cells of medical solution of each concentration group and cell control groups, and then a dot blot hybridization and autoradiography of each sample are measured. After measuring IOD value or OD value of every hybridization dot, the inhibition ratio is calculated.
# [2] = system: HIV-1 IIIB virus strain; test: Inhibitory effect on HIV-1 IIIB in MT-4 cells (P24 antigen ELISA of cell culture supernatant); conditions: Human immunodeficiency virus 1, IIIB, MT4, 96 h, read-out: IC50 (half inhibition concentration, HIV-1 IIIB)
# Method: (§2) Anti-HIV-1 IIIB/H9 in vitro of the above partial compounds is tested. Half inhibition concentration (IC50) of samples and half toxicity concentration (TC50) of samples are respectively measured after culturing MT-4 cells, wherein the cell toxicity is measured by the method of CPE, and the inhibitory effects on HIV-1 IIIB of compounds are measured by method of measuring P24 antigen of cell culture supernatant.
# Virus strains: HIV-1 IIIB virus strain
# Sample treatment: before using, the sample is prepared for a suitable concentration by being dissolved in DMSO and then is further prepared for a cell culture medium.
# Positive control drug: Zidovudine (AZT)
# HIV-1 P24 antigen detection kit: Use products of BioMerieux Corporation in Holland.
# HIV-1 P24 antigen is measured by the method of ELISA. After counting the MT-4 cells, the cells are infected in the virus dose of 100TCID50 and absorbed for 1.5 h in the incubator of 37° C., 5% CO2 and a saturated humidity. The cells are inoculated in a 96-well plate at the density of 2×10^5 cells/ml. After adding a diluted drug 100 ul/well, the culture of the plate is cultured at the incubator of 37° C., 5% CO2 and a saturated humidity for 4 days (96 h). Cell supernatant is taken out and diluted in the ratio of 1:3000. HIV-1 P24 titer is measured according to the test steps provided by HIV-1 P24 antigen kit. Compared adding drug groups with viral control groups, half inhibition concentration (IC50) of samples and half toxicity concentration (TC50) of samples are respectively calculated
# [3] = system: T-lymphocyte MT-4; test: Cell toxicity in MT-4 cells by method of CPE (96 h)
# Method: as §2
# Test method: The toxicity of drug in cell (TC50 and TC0) is measured by method of CPE. 100 μl cell is inoculated in 96-well plate at a density of 2×10^5 cells/ml. In the meantime, the medical solution 100 μl of 8 kinds of concentration of samples or positive drug zidovudine which are respectively diluted to 3 times are respectively added thereto, each of concentration is placed in 3 wells which are set to a cell control group. The above plates is cultured at the incubator of 37° C., 5% CO2 and a saturated humidity. CPE Cells are observed at the fourth day (96 h) after adding drug, the cytopathic situation is recorded and TC50 and TC0 are calculated.
# [4] = system: Hep-2 cell (human laryngocarcinoma cell); test: Toxicity of samples with respect to Hep-2 cell (CPE, Reed-Muench); conditions: 72 h
# Method: Anti-RSV in vitro of the above partial compounds is tested. With Hep-2 cell (human laryngocarcinoma cell) as viral host, Hep-2 cytopathic extent caused by inhibiting RSV is measured and observed for 72 h. Half inhibition concentration (IC50) of samples with respect to respiratory syncytial virus (RSV), its maximum of non toxicity concentration (TC0) and half toxicity concentration (TC50) of samples with respect to Hep-2 cell are respectively calculated by methods of Reed-Muench. Sample treatment: before using, sample is prepared for a suitable concentration by being dissolved in DMSO, and is diluted to 3 times with a culture medium to form eight dilutions. Test method: After Hep-2 cell is cultured in 96-well plate for 24 h, it is infected respiratory syncytial virus (RSV) (200TCID50 infective dose) and absorbed for 4 h to get a viral liquid. Then the viral liquid is discarded. The sample is added thereto according to the above eight dilutions, in the meantime cell control wells of positive drugs, normal cell control wells and viral control wells are set. The cytopathic extent (CPE) is observed for 72 h. Half inhibition concentration (IC50) of samples with respect to respiratory syncytial virus (RSV), its maximum of no toxicity concentration (TC0) and half toxicity concentration (TC50) of samples with respect to Hep-2 cells are respectively calculated by method of Reed-Muench.
# [5] = system: human hepatoma carcinoma cells (Hep G2) 2.2.15 cell line; test: Cell toxicity in 2.2.15 cells (cytopathic cells observed for 8 days, Reed-Muench)
# Method: as §1
# Virus strains: human hepatoma carcinoma cells (Hep G2) in 2.2.15 cell line are transfected by DNA cloning of hepatitis B virus (HBV).
# Sample treatment: the sample is prepared for a suitable concentration by being dissolved in DMSO and preserved at 4° C. before using. When using, the required concentration is prepared by using a 2.2.15 cell culture medium.
# Test method: The sample is prepared for a 20 mg/ml mother liquor, and is further prepared for a required concentration by using a 2.2.15 cell culture medium. Then the above solution is diluted to 5 times from 200 μg/ml with the culture medium to form eight kinds of concentrations. The above solution is added to a 96-well cell plate, each of concentration is placed in 3 wells, and the medical solution with the same concentration is changed every 4 days. Cell control group without drug is set to observe cytopathic cell as a target, the cytopathic cell is observed under a microscope for 8 days, wherein full destruction is about 4; 75% of cytopathic cells are about 3; 50% of cytopathic cells are about 2; 25% of cytopathic cells are about 1; no cytopathic cells is about 0. Mean cytopathic extent and inhibition ratio of medical solutions for each concentration are calculated. Half toxicity concentration (TC50) and its maximum of non toxicity concentration (TC0) are respectively calculated by the method of Reed-Muench. According to the method of molecular cloning experimental technology, firstly the HBV DNA is extracted from 2.2.15 cells of medical solution of each concentration group and cell control groups, and then a dot blot hybridization and autoradiography of each sample are measured. After measuring IOD value or OD value of every hybridization dot, the inhibition ratio is calculated.
# [6] = system: respiratory syncytial virus (RSV), Long strain; test: Inhibitory effect on anti-RSV in vitro (CPE in Hep-2 cells, 72 h, Reed-Muench); conditions: human respiratory syncytial virus, read-out: IC50 (half inhibition concentration, RSV)
# Method: Anti-RSV in vitro of the above partial compounds is tested. With Hep-2 cell (human laryngocarcinoma cell) as viral host, Hep-2 cytopathic extent caused by inhibiting RSV is measured and observed for 72 h. Half inhibition concentration (IC50) of samples with respect to respiratory syncytial virus (RSV), its maximum of non toxicity concentration (TC0) and half toxicity concentration (TC50) of samples with respect to Hep-2 cell are respectively calculated by methods of Reed-Muench.
# Virus strains: RSV, Long strain
# Sample treatment: before using, sample is prepared for a suitable concentration by being dissolved in DMSO, and is diluted to 3 times with a culture medium to form eight dilutions.
# Positive control drug: ribavirin (RBV)
# Test method: After Hep-2 cell is cultured in 96-well plate for 24 h, it is infected respiratory syncytial virus (RSV) (200TCID50 infective dose) and absorbed for 4 h to get a viral liquid. Then the viral liquid is discarded. The sample is added thereto according to the above eight dilutions, in the meantime cell control wells of positive drugs, normal cell control wells and viral control wells are set. The cytopathic extent (CPE) is observed for 72 h. Half inhibition concentration (IC50) of samples with respect to respiratory syncytial virus (RSV), its maximum of no toxicity concentration (TC0) and half toxicity concentration (TC50) of samples with respect to Hep-2 cells are respectively calculated by method of Reed-Muench.
# [7] = RSV Long strain in Hep-2 cell, CPE, 72 h
Structure (SMILES),HBV DNA Inhibition ratio (%) [1],IC50 [2] [µg/mL],"TC50 (half toxicity concentration) ([3]; MT-4 cells, CPE) [µg/mL]",TC0 (maximum of non toxicity concentration) [4] [µg/mL],TC50 (half toxicity concentration) [4] [µg/mL],Cell toxicity TC0 [5] [µg/mL],Cell toxicity TC50 [5] [µg/mL],"IC50 [6, 7] [µg/mL]",TC50 (half toxicity concentration) ([3]; human) [µg/mL],"IC50 ([6]; HEp-2, 72 h) [µg/mL]"
"Nc1ccn([C@@H]2CS[C@H](CO)O2)c(=O)n1 [3TC, lamivudine, reference compound]",40.8~49.39%,–,–,–,–,–,–,–,–,–
"Cc1cn([C@H]2C[C@H](N=[N+]=[N-])[C@@H](CO)O2)c(=O)[nH]c1=O [AZT, zidovudine, reference compound]",–,0.0042,20.00,–,–,–,–,–,–,–
CNC(=O)[C@]1(OC(=O)/C=C/c2ccc(O)c(O)c2)C[C@@H](O)[C@@H](O)[C@H](OC(=O)/C=C/c2ccc(O)c(O)c2)C1 [3-3],–,–,–,37.04,111.11,0.32,3.58,> 111,–,–
CNC(=O)[C@]1(O)C[C@@H](OC(=O)/C=C/c2ccc(O)c(O)c2)[C@@H](OC(=O)/C=C/c2ccc(O)c(O)c2)[C@H](OC(=O)/C=C/c2ccc(O)c(O)c2)C1 [3-7],41.71%,1.02,–,37.04,64.15,>200,>200,> 64.2,32.08,–
CNC(=O)[C@]1(O)C[C@@H](OC(=O)/C=C/c2ccc(O)c(O)c2)[C@@H](O)[C@H](OC(=O)/C=C/c2ccc(O)c(O)c2)C1 [3-1],–,1.83,–,37.04,64.15,1.6,27.59,16.2,32.08,–
O=C(/C=C/c1ccc(O)c(O)c1)O[C@@H]1C[C@](O)(C(=O)NC2CC2)C[C@@H](OC(=O)/C=C/c2ccc(O)c(O)c2)[C@H]1O [1-1],–,–,–,37.04,111.11,1.6,27.59,> 111,–,–
"NC(=O)c1ncn([C@@H]2O[C@H](CO)[C@@H](O)[C@H]2O)n1 [RBV, Ribavirin, reference compound]",–,–,–,–,–,–,–,–,–,1.37
O=C(/C=C/c1ccc(O)c(O)c1)O[C@@H]1C[C@](OC(=O)/C=C/c2ccc(O)c(O)c2)(C(=O)N2CCCC2)C[C@@H](O)[C@H]1O [2-3],–,–,–,4.12,12.35,0.32,3.58,> 12.3,–,–
CNC(=O)[C@]1(O)C[C@@H](O)[C@@H](O)[C@H](OC(=O)/C=C/c2ccc(O)c(O)c2)C1 [3-5],–,–,–,12.35,37.04,8,89.44,7.13,–,–
